Source: patent US20180180595A1, “CELL LINES MUTANT FOR PATCHED 1 AND PATCHED 2 AND METHODS OF USE THEREOF” (The Regents of the University of California, priority 2015, published 2018)

Tested on: hedgehog response pathway
Test: Hh pathway response in neuralized embryoid bodies from Ptch1-/-;Ptch2-/- mESCs
Assay type: cell-based, murine
Details: Ptch1-/-;Ptch2-/- mESCs differentiated into NEBs; agent added exogenously
Text: In the absence of Ptch1, Ptch2 can mediate some measure of the Shh response. Given the contribution of both Ptch1 and Ptch2 to the interpretation of the Shh signal, it was reasoned that a Ptch1^−/−;Ptch2^−/− genetic background was essential to assess the aggregate contribution of Ptch1/2 to Shh signaling. […] The Ptch1^−/−;Ptch2^−/−;Shh^−/− assessed here have a LacZ under the control of the Ptch1 promoter (Goodrich et al., Science. 1997, 277:1109-1113). Since the upregulation of Ptch1 is a common response to the activation of the Hh response pathway, induction of LacZ in NEBs was assessed. A strong induction of LacZ was observed after three days into the differentiation protocol, consistent with the ventral identity observed using neural markers.

Compound: CNC1CCC(N(Cc2cccc(-c3ccncc3)c2)C(=O)c2sc3ccccc3c2Cl)CC1 (stereo not shown) [SAG]
- induction of the hedgehog response pathway: could not be further induced
